This note sets out measurements from the OligoGym collection.

Oligonucleotides are given in HELM: sugar(base)linkage, 5' to 3'; d 2'-deoxyribose, r ribose, m 2'-O-methylribose, p phosphate. ss, as = sense and antisense strand

The target in the data set is Mmp7 (rat). The experiment in a line: reporter assay of Huesken 2005. The conditions noted are these: siRNA.
Further: test concentration or dose not given here.

As for “RNA1{r(C)p.r(C)p.r(A)p.r(G)p.r(G)p.r(A)p.r(A)p.r(A)p.r(C)p.r(A)p.r(C)p.r(U)p.r(C)p.r(U)p.r(A)p.r(G)p.r(G)p.r(C)p.r(C)p.d(T)p.d(T)}|RNA2{r(G)p.r(G)p.r(C)p.r(C)p.r(U)p.r(A)p.r(G)p.r(A)p.r(G)p.r(U)p.r(G)p.r(U)p.r(U)p.r(U)p.r(C)p.r(C)p.r(U)p.r(G)p.r(G)p.d(C)p.d(C)}$$$RNA1{StrandType:ss}|RNA2{StrandType:as}$”, the normalised inhibition (eCFP-eYFP dual reporter) was 33.8%.
Under “RNA1{r(C)p.r(C)p.r(G)p.r(G)p.r(A)p.r(G)p.r(A)p.r(A)p.r(G)p.r(U)p.r(G)p.r(A)p.r(C)p.r(C)p.r(G)p.r(C)p.r(A)p.r(C)p.r(U)p.d(T)p.d(T)}|RNA2{r(A)p.r(G)p.r(U)p.r(G)p.r(C)p.r(G)p.r(G)p.r(U)p.r(C)p.r(A)p.r(C)p.r(U)p.r(U)p.r(C)p.r(U)p.r(C)p.r(C)p.r(G)p.r(G)p.d(C)p.d(T)}$$$RNA1{StrandType:ss}|RNA2{StrandType:as}$” stands 94.4%; under “RNA1{r(G)p.r(G)p.r(C)p.r(C)p.r(A)p.r(C)p.r(U)p.r(C)p.r(U)p.r(C)p.r(U)p.r(G)p.r(G)p.r(G)p.r(U)p.r(C)p.r(U)p.r(G)p.r(G)p.d(T)p.d(T)}|RNA2{r(C)p.r(C)p.r(A)p.r(G)p.r(A)p.r(C)p.r(C)p.r(C)p.r(A)p.r(G)p.r(A)p.r(G)p.r(A)p.r(G)p.r(U)p.r(G)p.r(G)p.r(C)p.r(C)p.d(A)p.d(A)}$$$RNA1{StrandType:ss}|RNA2{StrandType:as}$”, 41.4%; under “RNA1{r(G)p.r(U)p.r(C)p.r(C)p.r(U)p.r(A)p.r(A)p.r(G)p.r(U)p.r(G)p.r(G)p.r(C)p.r(A)p.r(U)p.r(U)p.r(C)p.r(C)p.r(A)p.r(G)p.d(T)p.d(T)}|RNA2{r(C)p.r(U)p.r(G)p.r(G)p.r(A)p.r(A)p.r(U)p.r(G)p.r(C)p.r(C)p.r(A)p.r(C)p.r(U)p.r(U)p.r(A)p.r(G)p.r(G)p.r(A)p.r(C)p.d(T)p.d(G)}$$$RNA1{StrandType:ss}|RNA2{StrandType:as}$”, 110%.
With “RNA1{r(G)p.r(U)p.r(C)p.r(A)p.r(U)p.r(G)p.r(G)p.r(A)p.r(G)p.r(A)p.r(U)p.r(A)p.r(A)p.r(U)p.r(G)p.r(C)p.r(A)p.r(G)p.r(A)p.d(T)p.d(T)}|RNA2{r(U)p.r(C)p.r(U)p.r(G)p.r(C)p.r(A)p.r(U)p.r(U)p.r(A)p.r(U)p.r(C)p.r(U)p.r(C)p.r(C)p.r(A)p.r(U)p.r(G)p.r(A)p.r(C)p.d(A)p.d(C)}$$$RNA1{StrandType:ss}|RNA2{StrandType:as}$”, the normalised inhibition (eCFP-eYFP dual reporter) came out at 115%.
With “RNA1{r(U)p.r(G)p.r(G)p.r(G)p.r(A)p.r(A)p.r(C)p.r(A)p.r(G)p.r(G)p.r(C)p.r(G)p.r(C)p.r(A)p.r(G)p.r(A)p.r(A)p.r(U)p.r(U)p.d(T)p.d(T)}|RNA2{r(A)p.r(A)p.r(U)p.r(U)p.r(C)p.r(U)p.r(G)p.r(C)p.r(G)p.r(C)p.r(C)p.r(U)p.r(G)p.r(U)p.r(U)p.r(C)p.r(C)p.r(C)p.r(A)p.d(C)p.d(T)}$$$RNA1{StrandType:ss}|RNA2{StrandType:as}$”, the normalised inhibition (eCFP-eYFP dual reporter) was determined as 46.8%.
In the case of “RNA1{r(C)p.r(A)p.r(U)p.r(A)p.r(A)p.r(U)p.r(U)p.r(G)p.r(G)p.r(C)p.r(U)p.r(U)p.r(C)p.r(G)p.r(C)p.r(A)p.r(A)p.r(G)p.r(G)p.d(T)p.d(T)}|RNA2{r(C)p.r(C)p.r(U)p.r(U)p.r(G)p.r(C)p.r(G)p.r(A)p.r(A)p.r(G)p.r(C)p.r(C)p.r(A)p.r(A)p.r(U)p.r(U)p.r(A)p.r(U)p.r(G)p.d(A)p.d(T)}$$$RNA1{StrandType:ss}|RNA2{StrandType:as}$”, the normalised inhibition (eCFP-eYFP dual reporter) worked out at 63.1%.
The result for “RNA1{r(A)p.r(A)p.r(G)p.r(G)p.r(A)p.r(U)p.r(G)p.r(A)p.r(G)p.r(U)p.r(A)p.r(C)p.r(U)p.r(G)p.r(G)p.r(A)p.r(C)p.r(G)p.r(G)p.d(T)p.d(T)}|RNA2{r(C)p.r(C)p.r(G)p.r(U)p.r(C)p.r(C)p.r(A)p.r(G)p.r(U)p.r(A)p.r(C)p.r(U)p.r(C)p.r(A)p.r(U)p.r(C)p.r(C)p.r(U)p.r(U)p.d(G)p.d(T)}$$$RNA1{StrandType:ss}|RNA2{StrandType:as}$” reads 75.8%; that for “RNA1{r(A)p.r(C)p.r(U)p.r(C)p.r(U)p.r(U)p.r(C)p.r(U)p.r(G)p.r(U)p.r(U)p.r(C)p.r(C)p.r(C)p.r(A)p.r(G)p.r(U)p.r(U)p.r(C)p.d(T)p.d(T)}|RNA2{r(G)p.r(A)p.r(A)p.r(C)p.r(U)p.r(G)p.r(G)p.r(G)p.r(A)p.r(A)p.r(C)p.r(A)p.r(G)p.r(A)p.r(A)p.r(G)p.r(A)p.r(G)p.r(U)p.d(G)p.d(A)}$$$RNA1{StrandType:ss}|RNA2{StrandType:as}$”, 81.4%.
For “RNA1{r(C)p.r(C)p.r(U)p.r(C)p.r(G)p.r(G)p.r(C)p.r(G)p.r(G)p.r(A)p.r(G)p.r(A)p.r(U)p.r(G)p.r(C)p.r(U)p.r(C)p.r(A)p.r(C)p.d(T)p.d(T)}|RNA2{r(G)p.r(U)p.r(G)p.r(A)p.r(G)p.r(C)p.r(A)p.r(U)p.r(C)p.r(U)p.r(C)p.r(C)p.r(G)p.r(C)p.r(C)p.r(G)p.r(A)p.r(G)p.r(G)p.d(C)p.d(C)}$$$RNA1{StrandType:ss}|RNA2{StrandType:as}$”, the normalised inhibition (eCFP-eYFP dual reporter) was found to be 72.1%.
The result for “RNA1{r(A)p.r(C)p.r(U)p.r(G)p.r(G)p.r(A)p.r(C)p.r(G)p.r(G)p.r(A)p.r(U)p.r(G)p.r(G)p.r(U)p.r(G)p.r(A)p.r(G)p.r(G)p.r(A)p.d(T)p.d(T)}|RNA2{r(U)p.r(C)p.r(C)p.r(U)p.r(C)p.r(A)p.r(C)p.r(C)p.r(A)p.r(U)p.r(C)p.r(C)p.r(G)p.r(U)p.r(C)p.r(C)p.r(A)p.r(G)p.r(U)p.d(A)p.d(C)}$$$RNA1{StrandType:ss}|RNA2{StrandType:as}$” reads 46.5%; that for “RNA1{r(U)p.r(G)p.r(G)p.r(A)p.r(G)p.r(U)p.r(G)p.r(C)p.r(C)p.r(A)p.r(G)p.r(A)p.r(U)p.r(G)p.r(U)p.r(U)p.r(G)p.r(C)p.r(A)p.d(T)p.d(T)}|RNA2{r(U)p.r(G)p.r(C)p.r(A)p.r(A)p.r(C)p.r(A)p.r(U)p.r(C)p.r(U)p.r(G)p.r(G)p.r(C)p.r(A)p.r(C)p.r(U)p.r(C)p.r(C)p.r(A)p.d(C)p.d(A)}$$$RNA1{StrandType:ss}|RNA2{StrandType:as}$”, 91.3%; that for “RNA1{r(C)p.r(G)p.r(C)p.r(A)p.r(C)p.r(U)p.r(U)p.r(C)p.r(A)p.r(G)p.r(U)p.r(G)p.r(G)p.r(G)p.r(A)p.r(A)p.r(C)p.r(A)p.r(G)p.d(T)p.d(T)}|RNA2{r(C)p.r(U)p.r(G)p.r(U)p.r(U)p.r(C)p.r(C)p.r(C)p.r(A)p.r(C)p.r(U)p.r(G)p.r(A)p.r(A)p.r(G)p.r(U)p.r(G)p.r(C)p.r(G)p.d(G)p.d(T)}$$$RNA1{StrandType:ss}|RNA2{StrandType:as}$”, 91.1%.
Under “RNA1{r(C)p.r(U)p.r(C)p.r(U)p.r(C)p.r(U)p.r(G)p.r(G)p.r(G)p.r(U)p.r(C)p.r(U)p.r(G)p.r(G)p.r(G)p.r(U)p.r(C)p.r(A)p.r(C)p.d(T)p.d(T)}|RNA2{r(G)p.r(U)p.r(G)p.r(A)p.r(C)p.r(C)p.r(C)p.r(A)p.r(G)p.r(A)p.r(C)p.r(C)p.r(C)p.r(A)p.r(G)p.r(A)p.r(G)p.r(A)p.r(G)p.d(T)p.d(G)}$$$RNA1{StrandType:ss}|RNA2{StrandType:as}$” stands 73.1%; under “RNA1{r(A)p.r(U)p.r(G)p.r(U)p.r(U)p.r(G)p.r(C)p.r(A)p.r(G)p.r(A)p.r(A)p.r(U)p.r(U)p.r(C)p.r(U)p.r(C)p.r(A)p.r(C)p.r(U)p.d(T)p.d(T)}|RNA2{r(A)p.r(G)p.r(U)p.r(G)p.r(A)p.r(G)p.r(A)p.r(A)p.r(U)p.r(U)p.r(C)p.r(U)p.r(G)p.r(C)p.r(A)p.r(A)p.r(C)p.r(A)p.r(U)p.d(C)p.d(T)}$$$RNA1{StrandType:ss}|RNA2{StrandType:as}$”, 80.2%; under “RNA1{r(G)p.r(A)p.r(U)p.r(G)p.r(G)p.r(U)p.r(G)p.r(A)p.r(G)p.r(G)p.r(A)p.r(C)p.r(U)p.r(C)p.r(A)p.r(G)p.r(G)p.r(C)p.r(G)p.d(T)p.d(T)}|RNA2{r(C)p.r(G)p.r(C)p.r(C)p.r(U)p.r(G)p.r(A)p.r(G)p.r(U)p.r(C)p.r(C)p.r(U)p.r(C)p.r(A)p.r(C)p.r(C)p.r(A)p.r(U)p.r(C)p.d(C)p.d(G)}$$$RNA1{StrandType:ss}|RNA2{StrandType:as}$”, 61.8%.
“RNA1{r(G)p.r(A)p.r(A)p.r(G)p.r(C)p.r(C)p.r(C)p.r(A)p.r(G)p.r(G)p.r(U)p.r(G)p.r(U)p.r(G)p.r(G)p.r(A)p.r(G)p.r(U)p.r(G)p.d(T)p.d(T)}|RNA2{r(C)p.r(A)p.r(C)p.r(U)p.r(C)p.r(C)p.r(A)p.r(C)p.r(A)p.r(C)p.r(C)p.r(U)p.r(G)p.r(G)p.r(G)p.r(C)p.r(U)p.r(U)p.r(C)p.d(T)p.d(G)}$$$RNA1{StrandType:ss}|RNA2{StrandType:as}$”: the normalised inhibition (eCFP-eYFP dual reporter) amounted to 94%.
Under “RNA1{r(A)p.r(A)p.r(A)p.r(A)p.r(C)p.r(A)p.r(A)p.r(A)p.r(G)p.r(A)p.r(A)p.r(G)p.r(G)p.r(C)p.r(C)p.r(A)p.r(C)p.r(C)p.r(A)p.d(T)p.d(T)}|RNA2{r(U)p.r(G)p.r(G)p.r(U)p.r(G)p.r(G)p.r(C)p.r(C)p.r(U)p.r(U)p.r(C)p.r(U)p.r(U)p.r(U)p.r(G)p.r(U)p.r(U)p.r(U)p.r(U)p.d(A)p.d(G)}$$$RNA1{StrandType:ss}|RNA2{StrandType:as}$” stands 45.7%.
The result for “RNA1{r(A)p.r(G)p.r(U)p.r(G)p.r(C)p.r(A)p.r(G)p.r(U)p.r(G)p.r(G)p.r(A)p.r(C)p.r(A)p.r(A)p.r(A)p.r(C)p.r(U)p.r(G)p.r(A)p.d(T)p.d(T)}|RNA2{r(U)p.r(C)p.r(A)p.r(G)p.r(U)p.r(U)p.r(U)p.r(G)p.r(U)p.r(C)p.r(C)p.r(A)p.r(C)p.r(U)p.r(G)p.r(C)p.r(A)p.r(C)p.r(U)p.d(G)p.d(G)}$$$RNA1{StrandType:ss}|RNA2{StrandType:as}$” reads 110%; that for “RNA1{r(G)p.r(A)p.r(A)p.r(U)p.r(U)p.r(A)p.r(U)p.r(C)p.r(U)p.r(U)p.r(A)p.r(G)p.r(G)p.r(A)p.r(A)p.r(A)p.r(U)p.r(U)p.r(U)p.d(T)p.d(T)}|RNA2{r(A)p.r(A)p.r(A)p.r(U)p.r(U)p.r(U)p.r(C)p.r(C)p.r(U)p.r(A)p.r(A)p.r(G)p.r(A)p.r(U)p.r(A)p.r(A)p.r(U)p.r(U)p.r(C)p.d(T)p.d(G)}$$$RNA1{StrandType:ss}|RNA2{StrandType:as}$”, 116%.
